According to the supplement of paper PMC10307832:

Experiments:
Assay in all cases: relative viability (nuclei count vs DMSO), 5 days (fraction); higher = more cells survive
Serdemetan + Pemetrexed = compound: c1ccc2c(CCNc3ccc(Nc4ccncc4)cc3)c[nH]c2c1 [Serdemetan] + Nc1nc2[nH]cc(CCc3ccc(C(=O)N[C@@H](CCC(=O)O)C(=O)O)cc3)c2c(=O)[nH]1 [Pemetrexed] (partner 0.2 µM)
Summary of the method: (§1)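 Medians of duplicate plates are given as relative viability. That measure is the nuclei count in treated wells divided by the count in vehicle wells. Counts were taken on 4× images of lung cancer cell lines in 1536-well plates, 5 days after pin-tool dosing the day after seeding with one drug alone or a fixed anchor-drug dose plus five library-drug doses (not always all listed) in √10 steps.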

Selisistat + Tozasertib = compound: C1CC(C2=C(C1)C3=C(N2)C=CC(=C3)Cl)C(=O)N [Selisistat] + Cc1cc(Nc2cc(N3CCN(C)CC3)nc(Sc3ccc(NC(=O)C4CC4)cc3)n2)n[nH]1 [Tozasertib] (partner 0.1 µM)
Summary of the method: as §1

Serdemetan + Crizotinib = compound: c1ccc2c(CCNc3ccc(Nc4ccncc4)cc3)c[nH]c2c1 [Serdemetan] + C[C@@H](Oc1cc(-c2cnn(C3CCNCC3)c2)cnc1N)c1c(Cl)ccc(F)c1Cl [Crizotinib] (partner 1 µM)
Summary of the method: as §1

Serdemetan + Navitoclax = compound: c1ccc2c(CCNc3ccc(Nc4ccncc4)cc3)c[nH]c2c1 [Serdemetan] + CC1(C)CCC(c2ccc(Cl)cc2)=C(CN2CCN(c3ccc(C(=O)NS(=O)(=O)c4ccc(N[C@H](CCN5CCOCC5)CSc5ccccc5)c(S(=O)(=O)C(F)(F)F)c4)cc3)CC2)C1 [Navitoclax] (partner 0.5 µM)
Summary of the method: as §1

Cell Line | relative viability (Serdemetan + Pemetrexed; first compound 0.04 µM) | relative viability (Serdemetan + Pemetrexed; first compound 0.1265 µM) | relative viability (Serdemetan + Pemetrexed; first compound 0.4 µM) | relative viability (Serdemetan + Pemetrexed; first compound 1.265 µM) | relative viability (Serdemetan + Pemetrexed; first compound 4 µM) | relative viability (Selisistat + Tozasertib; first compound 0.4 µM) | relative viability (Selisistat + Tozasertib; first compound 12.65 µM) | relative viability (Selisistat + Tozasertib; first compound 40 µM) | relative viability (Serdemetan + Crizotinib; first compound 0.04 µM) | relative viability (Serdemetan + Crizotinib; first compound 0.1265 µM) | relative viability (Serdemetan + Crizotinib; first compound 0.4 µM) | relative viability (Serdemetan + Crizotinib; first compound 1.265 µM) | relative viability (Serdemetan + Crizotinib; first compound 4 µM) | relative viability (Serdemetan + Navitoclax; first compound 0.04 µM) | relative viability (Serdemetan + Navitoclax; first compound 0.1265 µM) | relative viability (Serdemetan + Navitoclax; first compound 0.4 µM) | relative viability (Serdemetan + Navitoclax; first compound 1.265 µM) | relative viability (Serdemetan + Navitoclax; first compound 4 µM) | relative viability (Selisistat + Tozasertib; first compound 1.265 µM) | relative viability (Selisistat + Tozasertib; first compound 4 µM)
HCC-44 | 0.62 | 0.621 | 0.577 | 0.574 | 0.644 | 0.968 | 0.848 | 0.931 | 0.766 | 0.828 | 0.71 | 0.54 | 0.599 | 1.13 | 1.04 | 0.972 | 0.756 | 0.741 | – | –
HCC-827 | 0.218 | 0.191 | – | 0.2 | 0.227 | 0.418 | 0.389 | 0.392 | 0.948 | 0.867 | – | 0.791 | 0.615 | 1.02 | 0.941 | – | 0.787 | 0.753 | 0.429 | 0.444
NCI-H1623 | – | – | – | – | – | 0.445 | 0.407 | 0.405 | – | – | – | – | – | – | – | – | – | – | 0.433 | 0.355
NCI-H2347 | 0.498 | 0.429 | 0.42 | – | 0.445 | 0.606 | 0.617 | 0.583 | 0.673 | 0.699 | 0.674 | 0.506 | 0.0688 | 0.737 | 0.779 | 0.712 | 0.624 | 0.374 | 0.733 | 0.427
PC-14 | 0.133 | 0.139 | – | 0.137 | 0.143 | 0.649 | 0.581 | 0.656 | 0.899 | 0.87 | 0.793 | 0.649 | 0.745 | 0.977 | 0.974 | 0.954 | 0.923 | 0.697 | 0.563 | 0.522
NCI-H1651 | 0.582 | 0.388 | 0.505 | 0.443 | 0.323 | 0.7 | 0.618 | 0.584 | 0.82 | 0.79 | 0.793 | 0.462 | 0.356 | 0.826 | 0.808 | 0.557 | 0.256 | 0.226 | 0.735 | 0.599
HARA | 0.202 | 0.254 | 0.226 | 0.196 | 0.257 | 0.137 | 0.154 | 0.1 | 0.856 | 0.971 | 0.966 | – | 0.601 | 1.12 | 1.11 | 1.09 | – | 0.757 | 0.12 | 0.119
NCI-H1650 | 0.374 | 0.328 | 0.371 | 0.343 | 0.264 | 0.355 | 0.34 | 0.334 | 0.914 | 1.09 | 0.927 | 0.944 | 0.879 | 1.02 | 1.19 | 1.19 | 1.18 | 0.722 | 0.301 | 0.404
NCI-H1395 | 0.853 | 0.925 | 0.886 | 0.705 | 0.518 | 0.705 | 0.8 | 0.686 | – | – | – | – | – | 0.976 | 1.07 | 1.08 | 0.923 | 0.815 | 0.698 | 0.81
LU99A | 0.177 | 0.182 | 0.345 | 0.15 | 0.16 | 0.298 | 0.313 | 0.281 | 0.521 | 0.529 | 0.317 | 0.187 | 0.17 | 0.803 | 0.842 | 0.712 | 0.251 | 0.26 | 0.249 | 0.319
NCI-H1355 | 1.07 | 1.02 | 0.949 | 1.05 | 0.954 | 0.599 | 0.497 | 0.589 | 0.97 | 1 | 1.02 | 1.06 | 0.781 | 1.01 | 0.863 | 0.944 | 0.915 | 0.78 | 0.648 | 0.519
HCC-78 | 0.93 | 0.879 | 0.903 | 0.917 | 0.915 | 0.486 | 0.407 | 0.424 | 0.342 | 0.325 | 0.322 | 0.321 | 0.322 | 0.758 | 0.898 | 0.774 | 0.756 | 0.384 | 0.418 | 0.398
NCI-H1563 | 0.827 | 0.641 | 0.627 | 0.393 | 0.602 | – | – | – | 0.835 | 0.786 | 0.77 | 0.68 | 0.704 | – | – | – | – | – | – | –
HCC-15 | 0.216 | 0.195 | 0.215 | 0.226 | 0.213 | 0.407 | 0.311 | 0.252 | 0.795 | 0.852 | 0.743 | 0.584 | 0.58 | 0.755 | 0.729 | 0.624 | 0.56 | 0.504 | 0.375 | –
EKVX | 0.335 | 0.401 | – | – | 0.376 | 0.352 | 0.376 | 0.369 | 0.899 | 0.894 | 0.913 | 0.897 | 0.98 | 0.862 | 0.888 | 0.973 | 0.791 | 0.91 | 0.37 | 0.421
NCI-H2087 | 0.704 | 0.611 | 0.643 | 0.404 | 0.28 | 0.247 | 0.164 | 0.272 | 1.14 | 0.746 | 0.699 | 0.426 | 0.487 | 1.05 | 1 | 0.715 | 0.467 | 0.64 | 0.236 | –
LK-2 | 0.261 | 0.206 | 0.225 | 0.265 | 0.241 | 0.155 | 0.176 | 0.18 | 0.217 | 0.265 | 0.205 | 0.204 | 0.252 | 0.918 | 0.889 | 1.2 | 0.953 | 0.746 | 0.189 | 0.197
NCI-H1437 | 0.287 | 0.327 | 0.316 | 0.264 | 0.252 | 0.426 | 0.369 | 0.369 | 0.835 | 1.03 | 0.786 | 0.778 | 0.8 | 1.06 | 1.01 | 0.99 | 0.98 | 0.754 | 0.398 | 0.339
